For 18 molecules, IC50 results are on record in patent US8771665B2 (Cocrystal Discovery, Inc., priority 2010, dated 2014).

Structures can show the parent of a compound that is named as a salt.

In this experiment the target is T1, HCV1b NS5B polymerase delta 21 (Hepatitis C virus genotype 1b, UniProt P26663).
T1 construct: purified HCV1b NS5B polymerase delta 21
The experiment in a line: RNA-Dependent RNA HCV NS5B (Polymerase) Assay and IC50 Determination. The format is biochemical. A digest of the protocol: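 Purified NS5B Δ21 (0.6 μg) with polyA:U16 template, 10 μM UTP plus α-32P UTP in Tris-HCl pH 7.5, 5 mM MgCl2, 0.5% Triton X-100, 60 min at 23°C with varied compound concentrations. Radiolabelled RNA captured on filters, quantified by phosphorimaging; IC50 from triplicate assays.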

T1 sequence (P26663 2420-2989): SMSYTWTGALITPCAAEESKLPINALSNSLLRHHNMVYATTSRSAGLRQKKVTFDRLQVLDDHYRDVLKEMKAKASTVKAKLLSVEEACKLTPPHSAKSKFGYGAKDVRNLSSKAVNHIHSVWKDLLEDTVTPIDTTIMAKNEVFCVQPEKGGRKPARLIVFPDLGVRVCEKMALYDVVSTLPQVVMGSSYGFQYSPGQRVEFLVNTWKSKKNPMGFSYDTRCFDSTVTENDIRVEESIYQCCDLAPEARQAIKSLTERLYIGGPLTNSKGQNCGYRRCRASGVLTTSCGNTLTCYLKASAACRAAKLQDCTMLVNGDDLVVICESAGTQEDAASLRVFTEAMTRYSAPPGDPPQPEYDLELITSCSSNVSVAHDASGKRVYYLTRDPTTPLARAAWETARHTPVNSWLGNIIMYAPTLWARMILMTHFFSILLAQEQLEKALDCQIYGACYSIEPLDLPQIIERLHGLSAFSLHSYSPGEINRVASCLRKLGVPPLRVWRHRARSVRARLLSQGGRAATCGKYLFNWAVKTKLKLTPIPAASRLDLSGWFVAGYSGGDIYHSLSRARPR

`CC1CCC(C2=C(c3cc(C#CC(C)(C)C)sc3C(=O)O)CCN(Cc3c(C(F)(F)F)nn(C)c3Cl)C2)CC1` (stereo not drawn) [Example 136, 3-[1-(5-Chloro-1-methyl-3-trifluoromethyl-1H-pyrazol-4-ylmethyl)-5-(4-methyl-cyclohexyl)-1,2,3,6-tetrahydro-pyridin-4-yl]-5-(3,3-dimethyl-but-1-ynyl)-thiophene-2-carboxylic acid] had an IC50 above 10 µM.

Molecule `CC1CCC(C2=C(c3cc(C#CC4(C)CC4)sc3C(=O)O)CCN(C)C2)CC1` (stereo not drawn) [Example 172, 5-(1-Methyl-cyclopropylethynyl)-3-[1-methyl-5-(4-methyl-cyclohexyl)-1,2,3,6-tetrahydro-pyridin-4-yl]-thiophene-2-carboxylic acid] had an IC50 below 3 µM. With `CCOC(=O)c1sc(-c2ccc(NC(=O)c3cscn3)cc2)cc1C1=C(C2CCC(C)CC2)CN(C)CC1` (stereo not drawn) [Example 100, 3-[1-Methyl-5-(4-methyl-cyclohexyl)-1,2,3,6-tetrahydro-pyridin-4-yl]-5-{4-[(thiazole-4-carbonyl)-amino]-phenyl}-thiophene-2-carboxylic acid ethyl ester], the half-inhibitory concentration (IC50) is above 10 µM. The molecule `CCN1CCC(c2cc(-c3ccc(NC(=O)c4cc[nH]n4)cc3)sc2C(=O)O)=C(C2CCC(C)CC2)C1` (stereo not drawn) [Example 055, 3-[1-Ethyl-5-(4-methyl-cyclohexyl)-1,2,3,6-tetrahydro-pyridin-4-yl]-5-{4-[(1H-pyrazole-3-carbonyl)-amino]-phenyl}-thiophene-2-carboxylic acid] returned a 50% inhibitory concentration (IC50) below 3 µM. The molecule `CC1CCC(C2=C(c3cc(C#CC(C)(C)C)sc3C(=O)O)CCN(Cc3ccccn3)C2)CC1` (stereo not drawn) [Example 127, 5-(3,3-Dimethyl-but-1-ynyl)-3-[5-(4-methyl-cyclohexyl)-1-pyridin-2-ylmethyl-1,2,3,6-tetrahydro-pyridin-4-yl]-thiophene-2-carboxylic acid] had an IC50 below 3 µM. `CCN1CCC(c2cc(-c3ccc(NC(=O)c4cn(C)cn4)cc3)sc2C(=O)O)=C(C2CCC(C)CC2)C1` (stereo not drawn) [Example 057, 3-[1-Ethyl-5-(4-methyl-cyclohexyl)-1,2,3,6-tetrahydro-pyridin-4-yl]-5-{4-[(1-methyl-1H-imidazole-4-carbonyl)-amino]-phenyl}-thiophene-2-carboxylic acid] gave an IC50 below 3 µM. For `CC1CCC(C2=C(c3cc(-c4ccccc4)sc3C(=O)O)CCN(C(=O)Cc3nc4ccccn4n3)C2)CC1` (stereo not drawn) [Example 153, 3-[5-(4-Methyl-cyclohexyl)-1-(2-[1,2,4]triazolo[1,5-a]pyridin-2-yl-acetyl)-1,2,3,6-tetrahydro-pyridin-4-yl]-5-phenyl-thiophene-2-carboxylic acid] the value was 3 to 10 µM.

As to `CC1CCC(C2=C(c3cc(-c4ccccc4)sc3C(=O)O)CCN(C(=O)c3ccccc3)C2)CC1` (stereo not drawn) [Example 072, 3-[1-Benzoyl-5-(4-methyl-cyclohexyl)-1,2,3,6-tetrahydro-pyridin-4-yl]-5-phenyl-thiophene-2-carboxylic acid], the half-maximal inhibitory concentration (IC50) is above 10 µM. Molecule `CC1CCC(C2=C(c3cc(C#CC4CC4)sc3C(=O)O)CCN(CCO)C2)CC1` (stereo not drawn) [Example 138, 5-Cyclopropylethynyl-3-[1-(2-hydroxy-ethyl)-5-(4-methyl-cyclohexyl)-1,2,3,6-tetrahydro-pyridin-4-yl]-thiophene-2-carboxylic acid] returned an IC50 below 3 µM.

On to `CC1CCC(C2=C(c3cc(-c4ccccc4)sc3C(=O)O)CCN(Cc3ccc4ccccc4n3)C2)CC1` (stereo not drawn) [Example 143, 3-[5-(4-Methyl-cyclohexyl)-1-quinolin-2-ylmethyl-1,2,3,6-tetrahydro-pyridin-4-yl]-5-phenyl-thiophene-2-carboxylic acid], for which the IC50 is above 10 µM. Turning to `CC1CCC(C2=C(c3cc(-c4ccc(N(C)C(=O)c5cscn5)cc4)sc3C(=O)O)CCN(C)C2)CC1` (stereo not drawn) [Example 067, 3-[1-Methyl-5-(4-methyl-cyclohexyl)-1,2,3,6-tetrahydro-pyridin-4-yl]-5-{4-[methyl-(thiazole-4-carbonyl)-amino]-phenyl}-thiophene-2-carboxylic acid], the IC50 was in the range of 3 to 10 µM. For `CC1CCC(C2=C(c3cc(-c4ccc(C#Cc5cscn5)cc4)sc3C(=O)O)CCN(C)C2)CC1` (stereo not drawn) [Example 129, 3-[1-Methyl-5-(4-methyl-cyclohexyl)-1,2,3,6-tetrahydro-pyridin-4-yl]-5-(4-thiazol-4-ylethynyl-phenyl)-thiophene-2-carboxylic acid, hydrochloride salt] the value was below 3 µM.

For `CCN1CCC(c2cc(-c3ccc(NC(=O)c4csc(C)n4)cc3)sc2C(=O)O)=C(C2CCC(C)CC2)C1` (stereo not drawn) [Example 048, 3-[1-Ethyl-5-(4-methyl-cyclohexyl)-1,2,3,6-tetrahydro-pyridin-4-yl]-5-{4-[(2-methyl-thiazole-4-carbonyl)-amino]-phenyl}-thiophene-2-carboxylic acid], the 50% inhibitory concentration (IC50) was below 3 µM. For `CCCC(C)C#Cc1cc(C2=C(C3CCC(C)CC3)CCN(C)C2)c(C(=O)O)s1` (stereo not drawn) [Example 177, 5-(3-Methyl-hex-1-ynyl)-3-[1-methyl-4-(4-methyl-cyclohexyl)-1,2,5,6-tetrahydro-pyridin-3-yl]-thiophene-2-carboxylic acid] the value was 3 to 10 µM; for `CC1CCC(C2=C(c3cc(-c4ccccc4)sc3C(=O)O)CCN(C(=O)c3ccc(C(F)(F)F)nc3)C2)CC1` (stereo not drawn) [Example 154, 3-[5-(4-Methyl-cyclohexyl)-1-(6-trifluoromethyl-pyridine-3-carbonyl)-1,2,3,6-tetrahydro-pyridin-4-yl]-5-phenyl-thiophene-2-carboxylic acid], below 3 µM; for `CC1CCC(C2=C(c3cc(-c4ccccc4)sc3C(=O)O)CCN(C(N)=O)C2)CC1` (stereo not drawn) [Example 084, 3-[1-Carbamoyl-5-(4-methyl-cyclohexyl)-1,2,3,6-tetrahydro-pyridin-4-yl]-5-phenyl-thiophene-2-carboxylic acid], below 3 µM. Molecule `CCN1CCC(c2cc(-c3ccc(NC(=O)c4cocn4)cc3)sc2C(=O)O)=C(C2CCC(C)CC2)C1` (stereo not drawn) [Example 052, 3-[1-Ethyl-5-(4-methyl-cyclohexyl)-1,2,3,6-tetrahydro-pyridin-4-yl]-5-{4-[(oxazole-4-carbonyl)-amino]-phenyl}-thiophene-2-carboxylic acid] gave an IC50 below 3 µM. `CN1CCC(c2cc(-c3ccccc3)sc2C(=O)O)=C(CCC2CCCC2)C1` [Example 063, 3-[5-(2-Cyclopentyl-ethyl)-1-methyl-1,2,3,6-tetrahydro-pyridin-4-yl]-5-phenyl-thiophene-2-carboxylic acid] returned an IC50 above 10 µM.

By IC50 is commonly meant the point on the concentration scale where inhibition reaches its midpoint. The low end stands for inhibition by little substance, the high end for a need for much substance.
